# According to patent US10233483B2, “Methods of targeted antibiotic susceptibility testing” (Qvella Corporation, priority 2013, dated 2019):
# Legend:
# Klebsiella pneumoniae = assay: Antimicrobial sensitivity testing of bacteria in partially lysed then enriched whole blood, real-time RT-PCR of rRNA and tmRNA; format: cell-based; conditions: 8 ug/mL final concentration, 2 hours incubation at 37° C. after 2 hours pre-incubation, K. pneumoniae spiked whole blood enriched with TSB
# Method: Unless any variation is specified, the following example pretreatment procedure which includes blood cell lysis step followed by 4 wash cycles was performed in experiments which required pretreatment of blood samples. 10 μL of Fluorinert™ was added to 2 mL siliconized microcentrifuge tubes (T3531, Sigma), followed by the addition of 500 μL of the blood cell lysis reagent. The blood cell lysis reagent consisted of 75 mg/mL saponin, 15 mg/mL SPS and 1% PPG. EDTA-treated human whole blood from healthy volunteers of 1 mL spiked with microbial cells was added to the tube containing the blood cell lysis reagent and the Fluorinert™, and mixed by inverting ten times and vortexing at low speeds for 10 sec. The final concentrations of the components in the mixture were 25 mg/mL saponin, 5 mg/mL SPS and 0.33% PPG. The tubes were centrifuged at 12,000 rpm for 1 min and 1.35 mL of the supernatant was removed, leaving 150 uL of the liquid supernatant, Fluorinert™ and the sedimented microbial I cells. The first wash cycles was performed by adding 1.35 mL of 0.8 mM phosphate buffer to the remaining liquid supernatant of 150 uL as described above, mixing by vortexing at low speed for 10 sec, centrifugation at 12,000 rpm for 1 min and removal of 1.35 mL of the supernatant, leaving 150 μL of the liquid supernatant, the Fluorinert™ and the sedimented microbial. […]
# E. coli = assay: DnaK mRNA level after heat-shock induction in bacteria exposed to antibiotic, real-time RT-PCR; format: cell-based, Escherichia coli; conditions: 4 or 8 ug/mL, 120 min at 37° C. in LB broth, heat-shock 42° C. 3 min before E-lysis
# Method: Unless any variation was specified, RT-PCR reaction of 5 μL volume was prepared by mixing 1 μL of sample, 1 μL of Kapa 2G Robust Hotstart 5× buffer (KK5517, KAPA Biosystems), 0.05 μL of Kapa 2G Robust Hotstart DNA polymerase (kk5517, KAPA Biosystems), 0.2 μL of reverse transcriptase (GoScript, A5004 Promega), 0.04 uL of 100 mM dNTPs (10297-117, Life Technologies), 0.25 uL of DMSO, 0.13 uL of SYBR Green (1/375 dilution, S7563 Invitrogen), 0.5 μL each of respective forward and reverse primers (2.5 μM) and 1.34 μL of RNAase free water. In indicated experiments, for PCR reaction of 5 μL volume the composition was the same as RT-PCR reaction except 0.2 μL of RNAase free water was added instead of reverse transcriptase. Real time RT-PCR targeting rRNA or tmRNA was performed by reverse transcription at 50° C. for 5 min, inactivation of reverse transcriptase and activation of hotstart DNA polymerase at 97° C. for 5 min, followed by 35 to 40 cycles of cDNA amplification (denaturation at 95° C. for 5 sec, annealing at 63° for 7 sec, and extension at 72° C. for 10 sec) in Eco Real Time PCR system (Illumina) using a double stranded DNA binding fluorescent dye, SYBR Green. […]
# As it is observed, the exposure of microbial cells to the antibiotic norfloxacin reduced the quantity of target mRNA by approximately 8-16 times (corresponding to 3-4 PCR cycles).
structure (smiles),measurement,setting,value
CCn1cc(C(=O)O)c(=O)c2cc(F)c(N3CCNCC3)cc21 [norfloxacin],rRNA and tmRNA RT-PCR signal in response to the antibiotic compared to without antibiotic (Non-treated) culture,Klebsiella pneumoniae,reduction of rRNA and tmRNA
same,reduction of target mRNA (DnaK) signal in PCR cycles after exposure to the antibiotic,E. coli,3-4 PCR cycles
same,reduction of the quantity of target mRNA (DnaK) after exposure to the antibiotic,E. coli,8-16 times
